# Assay results reported in patent publication US12180207B2 (ARRAY BIOPHARMA INC., priority 2018, dated 2024).
# Legend:
# [1] = target: dephosphorylated FGFR1 (SEQ ID NO: 1, amino acids 458 to 765) (Homo sapiens (Human), UniProt P11362); assay: FGFR enzyme binding assay (HTRF tracer displacement), FGFR1; settings: 5 nM dephosphorylated FGFR1, average of multiple determinations if made
# Method in brief: (§1)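 Compounds were tested for displacement of a tracer from human FGFR kinase in a time-resolved FRET binding format. After 60 minutes at 22° C, signal was read at two wavelengths and converted to percent of control, normalised between untreated wells and 1 μM reference inhibitor.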
# [2] = target: FGFR3 (SEQ ID NO: 5, amino acids 449-759) (Homo sapiens (Human), UniProt P22607); assay: LC/MS FGFR3 kobs assay (covalent protein modification); assay type: binding; settings: 500 nM FGFR3, 3 μM compound
# FGFR3 (SEQ ID NO: 5, amino acids 449-759), sequence (P22607 449-759): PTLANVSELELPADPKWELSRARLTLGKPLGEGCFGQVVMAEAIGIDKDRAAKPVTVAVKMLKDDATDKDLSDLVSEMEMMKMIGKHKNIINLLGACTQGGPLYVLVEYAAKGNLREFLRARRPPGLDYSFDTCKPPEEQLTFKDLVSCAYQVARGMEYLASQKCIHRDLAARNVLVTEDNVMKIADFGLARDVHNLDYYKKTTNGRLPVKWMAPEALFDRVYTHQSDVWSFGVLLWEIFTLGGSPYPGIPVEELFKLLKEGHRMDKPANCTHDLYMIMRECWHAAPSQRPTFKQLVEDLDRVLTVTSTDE
# Method in brief: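 Covalent modification of FGFR1 (aa 458-765) or FGFR3 (aa 449-759) followed over time; reactions quenched with 0.4% formic acid and analysed by Q-TOF LC/MS after deconvolution. Percent unmodified protein, normalized to DMSO controls, fit to exponential decay to give kobs; averaged where repeated.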
# [3] = target: phosphorylated FGFR3 (SEQ ID NO: 5, amino acids 449 to 759) (Homo sapiens (Human), UniProt P22607); assay: FGFR enzyme binding assay (HTRF tracer displacement), FGFR3; settings: 5 nM phosphorylated FGFR3, average of multiple determinations if made
# phosphorylated FGFR3 (SEQ ID NO: 5, amino acids 449 to 759), sequence (P22607 449-759): as above
# Method in brief: as §1
# [4] = target: recombinant human FGFR1 catalytic domain (amino acids 308-731) (Homo sapiens (Human), UniProt P11362); assay: FGFR1 enzyme activity assay (LanthaScreen TR-FRET); assay type: biochemical; settings: 20 min incubation at 22° C., average of multiple determinations if made, read-out: FGFR1 Enz FRET IC50
# recombinant human FGFR1 catalytic domain (amino acids 308-731), sequence (P11362 other isoform, or with tags, fused parts or gaps): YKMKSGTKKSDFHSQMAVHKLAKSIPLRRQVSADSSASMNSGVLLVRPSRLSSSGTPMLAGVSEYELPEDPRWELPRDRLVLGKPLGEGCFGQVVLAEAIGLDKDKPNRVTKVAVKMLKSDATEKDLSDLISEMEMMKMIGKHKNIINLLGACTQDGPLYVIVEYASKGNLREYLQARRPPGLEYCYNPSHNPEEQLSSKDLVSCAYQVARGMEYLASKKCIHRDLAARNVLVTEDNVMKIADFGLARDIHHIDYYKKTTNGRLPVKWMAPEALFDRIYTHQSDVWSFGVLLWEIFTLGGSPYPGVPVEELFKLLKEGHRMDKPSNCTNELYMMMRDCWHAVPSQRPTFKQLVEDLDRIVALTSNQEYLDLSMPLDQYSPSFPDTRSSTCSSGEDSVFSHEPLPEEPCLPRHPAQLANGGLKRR
# Method in brief: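 His-tagged FGFR1 kinase domain with 100 nM Alexa Fluor 647-poly-GT peptide and ATP in pH 7.5 HEPES/MgCl2 buffer with 2% DMSO, 20 min at 22 °C. Quenched with EDTA plus 2 nM Eu-PY20 antibody and read after 60 min. IC50 comes from a 4-parameter fit of percent of control.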
# [5] = target: FGFR1 (SEQ ID NO: 1, amino acids 458-765) (Homo sapiens (Human), UniProt P11362); assay: LC/MS FGFR1 kobs assay (covalent protein modification); assay type: binding; settings: 500 nM FGFR1, 3 μM compound
# FGFR1 (SEQ ID NO: 1, amino acids 458-765), sequence (P11362 458-765): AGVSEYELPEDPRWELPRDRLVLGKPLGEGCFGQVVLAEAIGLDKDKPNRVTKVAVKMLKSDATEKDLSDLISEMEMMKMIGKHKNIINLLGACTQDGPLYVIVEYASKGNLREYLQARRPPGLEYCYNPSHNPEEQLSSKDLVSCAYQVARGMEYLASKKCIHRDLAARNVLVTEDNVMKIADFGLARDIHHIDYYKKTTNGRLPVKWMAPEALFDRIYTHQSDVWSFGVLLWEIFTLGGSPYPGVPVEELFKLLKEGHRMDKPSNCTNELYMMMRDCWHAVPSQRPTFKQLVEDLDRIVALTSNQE
# Method in brief: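 Covalent labeling of FGFR1 kinase domain (aa 458-765) tracked over time by intact-protein LC/MS after formic acid quench. kobs derived by fitting DMSO-normalized percent unmodified FGFR1 to an exponential decay model.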
# [6] = target: recombinant human FGFR3 (amino acids R397-T806) (Homo sapiens (Human), UniProt P22607); assay: FGFR3 enzyme activity assay (LanthaScreen TR-FRET); assay type: biochemical; settings: 25 μM ATP, 10 min incubation at 22° C., average of multiple determinations if made, read-out: FGFR3 Enz FRET IC50
# recombinant human FGFR3 (amino acids R397-T806), sequence (P22607 397-806): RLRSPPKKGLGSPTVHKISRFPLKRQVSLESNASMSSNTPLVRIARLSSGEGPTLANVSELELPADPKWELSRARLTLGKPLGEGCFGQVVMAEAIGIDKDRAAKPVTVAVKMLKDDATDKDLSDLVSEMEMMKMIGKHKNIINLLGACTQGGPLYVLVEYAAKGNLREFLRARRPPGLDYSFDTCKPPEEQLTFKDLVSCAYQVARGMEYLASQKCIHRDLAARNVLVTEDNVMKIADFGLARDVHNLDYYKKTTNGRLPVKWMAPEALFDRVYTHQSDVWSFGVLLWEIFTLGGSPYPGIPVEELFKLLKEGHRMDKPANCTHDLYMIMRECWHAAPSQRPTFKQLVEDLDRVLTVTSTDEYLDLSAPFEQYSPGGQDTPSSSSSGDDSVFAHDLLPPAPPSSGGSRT
# Method in brief: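 GST-HIS6-tagged human FGFR3 (R397-T806) was reacted with 100 nM Alexa Fluor 647-Poly-GT substrate and 25 μM ATP plus compound in HEPES/MgCl2/Triton buffer, pH 7.5, 2% DMSO, for 10 min at 22 °C.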
# dephosphorylated FGFR1 (SEQ ID NO: 1, amino acids 458 to 765), sequence (P11362 458-765): as the sequence (P11362 458-765) above
Structure (SMILES),IC50 [1] [µM],FGFR3 Enz kobs [2] [min⁻¹],IC50 [3] [µM],IC50 [4] [µM],FGFR1 Enz kobs [5] [min⁻¹],IC50 [6] [µM]
"C=CC(=O)N1C2CC1CN(C(=O)N1CCC(n3cc(-c4cc(OC)c5c(C#N)cnn5c4)cn3)CC1)C2 [Example 1, 6-(1-(1-(6-acryloyl-3,6-diazabicyclo[3.1.1]heptane-3-carbonyl)piperidin-4-yl)-1H-pyrazol-4-yl)-4-methoxypyrazolo[1,5-a]pyridine-3-carbonitrile]",0.05,0.01496,0.004,0.005,0.00122,0.005
"C=CC(=O)N1C2COCC1CN(C(=O)N1CCC(n3cc(-c4cc(OC)c5c(C#N)cnn5c4)cn3)CC1)C2 [Example 3, 6-(1-(1-(9-acryloyl-3-oxa-7,9-diazabicyclo[3.3.1]nonane-7-carbonyl)piperidin-4-yl)-1H-pyrazol-4-yl)-4-methoxypyrazolo[1,5-a]pyridine-3-carbonitrile]",0.044,0.01875,0.003,0.008,0.00172,0.002
"C=CC(=O)N1CCC(C#N)(C(=O)N2CCC(n3cc(-c4cc(OC)c5c(C#N)cnn5c4)cn3)CC2)CC1 [Example 14, 6-(1-(1-(1-acryloyl-4-cyanopiperidine-4-carbonyl)piperidin-4-yl)-1H-pyrazol-4-yl)-4-methoxypyrazolo[1,5-a]pyridine-3-carbonitrile]",0.084,0.00997,0.007,0.008,0.00069,0.003
"C=CC(=O)N1CCC(C(=O)N2CCC(n3cc(-c4cc(OC)c5c(C#N)cnn5c4)cn3)CC2)C(F)(F)C1 (stereo not drawn) [Example 15, 6-(1-(1-(1-acryloyl-3,3-difluoropiperidine-4-carbonyl)piperidin-4-yl)-1H-pyrazol-4-yl)-4-methoxypyrazolo[1,5-a]pyridine-3-carbonitrile]",0.032,0.01716,0.002,0.007,0.00168,0.002
"C=CC(=O)N1CC2(CCC(C(=O)N3CCC(n4cc(-c5cc(OC)c6c(C#N)cnn6c5)cn4)CC3)CC2)C1 [Example 21, 6-(1-(1-(2-acryloyl-2-azaspiro[3.5]nonane-7-carbonyl)piperidin-4-yl)-1H-pyrazol-4-yl)-4-methoxypyrazolo[1,5-a]pyridine-3-carbonitrile]",0.057,0.00661,0.005,0.01,0.00085,0.003
"C=CC(=O)Nc1cccc(C(=O)N2CCC(n3cc(-c4cc(OC)c5c(C#N)cnn5c4)cn3)CC2)c1 [Example 22, N-(3-(4-(4-(3-cyano-4-methoxypyrazolo[1,5-a]pyridin-6-yl)-1H-pyrazol-1-yl)piperidine-1-carbonyl)phenyl)acrylamide]",0.112,0.0108,0.008,0.021,0.00187,0.004
"C=CC(=O)Nc1ccc(C(=O)N2CCC[C@@H](n3cc(-c4cc(OC)c5c(C#N)cnn5c4)cn3)C2)cc1 [Example 23, (R)-N-(4-(3-(4-(3-cyano-4-methoxypyrazolo[1,5-a]pyridin-6-yl)-1H-pyrazol-1-yl)piperidine-1-carbonyl)phenyl)acrylamide]",0.431,0.01176,0.054,0.036,0.00247,0.016
"C=CC(=O)Nc1cccc(C(=O)N2CCC[C@@H](n3cc(-c4cc(OC)c5c(C#N)cnn5c4)cn3)C2)c1 [Example 24, (R)-N-(3-(3-(4-(3-cyano-4-methoxypyrazolo[1,5-a]pyridin-6-yl)-1H-pyrazol-1-yl)piperidine-1-carbonyl)phenyl)acrylamide]",0.31,0.00708,0.069,0.063,0.0025,0.031
"C=CC(=O)Nc1ccccc1C(=O)N1CCC[C@@H](n2cc(-c3cc(OC)c4c(C#N)cnn4c3)cn2)C1 [Example 25, (R)-N-(2-(3-(4-(3-cyano-4-methoxypyrazolo[1,5-a]pyridin-6-yl)-1H-pyrazol-1-yl)piperidine-1-carbonyl)phenyl)acrylamide]",0.35,0.00672,0.052,0.053,0.00103,0.012
"C=CC(=O)N1CC[C@H](C(=O)N2CCC(n3cc(-c4cc(OC)c5c(C#N)cnn5c4)cn3)CC2)C1 [Example 28, (S)-6-(1-(1-(1-acryloylpyrrolidine-3-carbonyl)piperidin-4-yl)-1H-pyrazol-4-yl)-4-methoxypyrazolo[1,5-a]pyridine-3-carbonitrile]",0.105,0.00294,0.017,0.018,0.00075,0.009
"C=CC(=O)N1CC[C@@H](C(=O)N2CCC(n3cc(-c4cc(OC)c5c(C#N)cnn5c4)cn3)CC2)C1 [Example 29, (R)-6-(1-(1-(1-acryloylpyrrolidine-3-carbonyl)piperidin-4-yl)-1H-pyrazol-4-yl)-4-methoxypyrazolo[1,5-a]pyridine-3-carbonitrile]",0.251,0.00297,0.043,0.024,0.00075,0.011
"C=CC(=O)N1CCC(F)(C(=O)N2CCC(n3cc(-c4cc(OC)c5c(C#N)cnn5c4)cn3)CC2)C1 (stereo not drawn) [Example 30, 6-(1-(1-(1-acryloyl-3-fluoropyrrolidine-3-carbonyl)piperidin-4-yl)-1H-pyrazol-4-yl)-4-methoxypyrazolo[1,5-a]pyridine-3-carbonitrile]",0.051,0.01214,0.005,0.009,0.00104,0.002
"C=CC(=O)N1CCC(C#N)(C(=O)N2CCC(n3cc(-c4cc(OC)c5c(C#N)cnn5c4)cn3)CC2)C1 (stereo not drawn) [Example 31, 6-(1-(1-(1-acryloyl-3-cyanopyrrolidine-3-carbonyl)piperidin-4-yl)-1H-pyrazol-4-yl)-4-methoxypyrazolo[1,5-a]pyridine-3-carbonitrile]",0.026,0.02377,0.002,0.008,0.00146,0.002
"C=CC(=O)N1CC(C(=O)N2CCC(n3cc(-c4cc(OC)c5c(C#N)cnn5c4)cn3)CC2)C1 [Example 36, 6-(1-(1-(1-acryloylazetidine-3-carbonyl)piperidin-4-yl)-1H-pyrazol-4-yl)-4-methoxypyrazolo[1,5-a]pyridine-3-carbonitrile]",0.059,0.01426,0.004,0.011,0.00127,0.004
"C=CC(=O)N1CC(F)(C(=O)N2CCC(n3cc(-c4cc(OC)c5c(C#N)cnn5c4)cn3)CC2)C1 [Example 37, 6-(1-(1-(1-acryloyl-3-fluoroazetidine-3-carbonyl)piperidin-4-yl)-1H-pyrazol-4-yl)-4-methoxypyrazolo[1,5-a]pyridine-3-carbonitrile]",0.289,0.07092,0.003,0.016,0.00447,0.004
"C=CC(=O)Nc1ccc(C(=O)N2CCC(n3cc(-c4cc(OC)c5c(C#N)cnn5c4)cn3)CC2)cc1 [Example 177, N-(4-(4-(4-(3-cyano-4-methoxypyrazolo[1,5-a]pyridin-6-yl)-1H-pyrazol-1-yl)piperidine-1-carbonyl)phenyl)acrylamide]",,0.01958,,0.011,0.00324,0.008
"C=CS(=O)(=O)Nc1cccc(C(=O)N2CCC(n3cc(-c4cc(OC)c5c(C#N)cnn5c4)cn3)CC2)c1 [Example 188, N-(3-(4-(4-(3-cyano-4-methoxypyrazolo[1,5-a]pyridin-6-yl)-1H-pyrazol-1-yl)piperidine-1-carbonyl)phenyl)eth-enesulfonamide]",0.014,0.08524,0.001,0.011,,0.003
